Measured values taken from ChEMBL document CHEMBL1201862, “PubChem BioAssay data set” (2004).
Active and inactive are the calls of the source.

Columns and labels:
[1] = target: Serine/threonine-protein phosphatase PP1-alpha catalytic subunit (Homo sapiens, UniProt P62136); assay: inhibition of protein phosphatase 1 activity – biochemical, fluorescence, dose response (AID 2394)
[2] = viability loss in HeLa cells – cytotoxicity control for MgcRacGAP inhibitor project, dose response (AID 624300); format: functional
[3] = target: T1, Rac GTPase-activating protein 1 (Homo sapiens, UniProt Q9H0H5); assay: blockers of MgcRacGAP-driven Rac1 GTP hydrolysis – biochemical, ADP Hunter fluorescence, primary and confirmatory, confirmation (AID 624330); format: functional
T1 sequence (Q9H0H5 whole entry): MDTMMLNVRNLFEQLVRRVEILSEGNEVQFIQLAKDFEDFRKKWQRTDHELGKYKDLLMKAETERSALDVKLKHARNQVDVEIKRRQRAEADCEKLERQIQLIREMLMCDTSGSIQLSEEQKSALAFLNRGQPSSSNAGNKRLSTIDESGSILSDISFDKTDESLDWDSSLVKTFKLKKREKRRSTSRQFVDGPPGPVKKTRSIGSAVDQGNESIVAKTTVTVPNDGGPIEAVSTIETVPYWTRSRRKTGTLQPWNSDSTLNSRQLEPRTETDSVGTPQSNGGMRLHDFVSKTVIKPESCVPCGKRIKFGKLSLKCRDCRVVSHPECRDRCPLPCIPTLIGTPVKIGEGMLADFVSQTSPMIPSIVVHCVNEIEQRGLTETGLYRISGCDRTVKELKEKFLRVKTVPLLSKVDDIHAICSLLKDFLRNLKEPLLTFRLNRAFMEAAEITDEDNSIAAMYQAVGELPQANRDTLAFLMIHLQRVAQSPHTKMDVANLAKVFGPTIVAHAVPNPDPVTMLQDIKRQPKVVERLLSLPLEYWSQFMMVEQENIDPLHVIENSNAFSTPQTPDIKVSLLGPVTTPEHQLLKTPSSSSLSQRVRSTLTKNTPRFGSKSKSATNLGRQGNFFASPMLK

Paired box protein Pax-8 = Paired box protein Pax-8 (Homo sapiens, UniProt Q06710); assay: PAX8 transcriptional activity inhibition in RMG-I – RMG-I cells, luciferase, cherry-pick, dose response (AID 687027); format: functional, cell-based;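 further: luciferase reporter driven by Pax8 target thyroperoxidase promoter measured by SteadyGlo luminescence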
Chain of Paired box protein Pax-8 (Q06710 whole entry): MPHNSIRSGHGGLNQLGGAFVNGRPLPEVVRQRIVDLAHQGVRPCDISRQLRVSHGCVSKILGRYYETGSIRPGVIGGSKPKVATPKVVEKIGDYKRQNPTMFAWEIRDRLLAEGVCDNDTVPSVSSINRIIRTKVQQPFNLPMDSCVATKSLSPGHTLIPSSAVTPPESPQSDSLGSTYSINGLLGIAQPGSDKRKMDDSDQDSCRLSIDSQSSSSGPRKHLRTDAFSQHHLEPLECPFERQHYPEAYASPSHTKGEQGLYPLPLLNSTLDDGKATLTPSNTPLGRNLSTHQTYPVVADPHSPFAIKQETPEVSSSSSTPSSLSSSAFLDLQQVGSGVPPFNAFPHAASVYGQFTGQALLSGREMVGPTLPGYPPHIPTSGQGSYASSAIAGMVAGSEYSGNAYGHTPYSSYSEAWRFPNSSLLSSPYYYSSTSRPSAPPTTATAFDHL

[4] = target: T2, Heat shock factor protein 1 (Mus musculus, UniProt P38532); assay: decrease of HSF1-responsive luciferase luminescence – cell-based, NIH3T3, dose retest, confirmation (AID 2382); format: functional;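 further: NIH3T3 fibroblasts with HSF1-driven luciferase reporter stressed by proteasome inhibitor MG132; luminescence from HSF1-driven luciferase expression after 8 hours of MG132 stress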
T2 sequence (P38532 whole entry): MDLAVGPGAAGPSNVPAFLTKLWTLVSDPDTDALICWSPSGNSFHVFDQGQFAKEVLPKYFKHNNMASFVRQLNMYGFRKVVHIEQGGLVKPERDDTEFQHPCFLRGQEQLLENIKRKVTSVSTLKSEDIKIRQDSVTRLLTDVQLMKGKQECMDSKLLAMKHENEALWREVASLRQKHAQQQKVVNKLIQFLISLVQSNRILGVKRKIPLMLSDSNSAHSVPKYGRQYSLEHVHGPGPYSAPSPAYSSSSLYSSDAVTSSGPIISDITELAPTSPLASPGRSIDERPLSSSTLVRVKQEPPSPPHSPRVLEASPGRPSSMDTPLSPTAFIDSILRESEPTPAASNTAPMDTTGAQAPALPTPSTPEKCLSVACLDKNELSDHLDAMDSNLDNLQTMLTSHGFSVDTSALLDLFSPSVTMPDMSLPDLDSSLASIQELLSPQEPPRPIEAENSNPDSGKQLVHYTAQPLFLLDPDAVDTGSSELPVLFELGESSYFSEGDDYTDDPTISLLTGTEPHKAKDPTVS

[5] = alpha-synuclein stem-loop luciferase translation blockers – H4 neuroglioma cells, luminescence, confirmation (AID 1988); format: functional, cell-based
[6] = target: Kappa-type opioid receptor (Homo sapiens, UniProt P41145); format: functional
Chain of Kappa-type opioid receptor (P41145 whole entry): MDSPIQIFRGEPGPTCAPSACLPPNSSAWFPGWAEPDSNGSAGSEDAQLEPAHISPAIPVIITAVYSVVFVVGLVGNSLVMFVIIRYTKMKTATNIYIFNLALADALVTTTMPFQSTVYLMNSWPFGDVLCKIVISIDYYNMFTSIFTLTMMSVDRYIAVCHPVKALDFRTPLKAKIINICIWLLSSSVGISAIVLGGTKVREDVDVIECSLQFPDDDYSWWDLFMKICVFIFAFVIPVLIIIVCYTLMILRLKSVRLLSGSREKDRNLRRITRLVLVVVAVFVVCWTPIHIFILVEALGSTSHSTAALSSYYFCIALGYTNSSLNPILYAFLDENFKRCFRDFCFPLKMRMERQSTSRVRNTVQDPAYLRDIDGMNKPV

[7] = NIH3T3 cell viability loss – ATP luminescence, mouse fibroblasts, counter-screen, dose response (AID 2010); format: functional, cell-based;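 further: cells exposed to compound for about 90 hours before reading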
[8] = target: T3, Replicative DNA helicase DnaB (Mycobacterium tuberculosis, UniProt P9WMR3); assay: DnaB intein splicing inhibitors, dose response, biochemical, cell-free fluorescence (AID 449749); format: functional
T3 sequence (P9WMR3 whole entry): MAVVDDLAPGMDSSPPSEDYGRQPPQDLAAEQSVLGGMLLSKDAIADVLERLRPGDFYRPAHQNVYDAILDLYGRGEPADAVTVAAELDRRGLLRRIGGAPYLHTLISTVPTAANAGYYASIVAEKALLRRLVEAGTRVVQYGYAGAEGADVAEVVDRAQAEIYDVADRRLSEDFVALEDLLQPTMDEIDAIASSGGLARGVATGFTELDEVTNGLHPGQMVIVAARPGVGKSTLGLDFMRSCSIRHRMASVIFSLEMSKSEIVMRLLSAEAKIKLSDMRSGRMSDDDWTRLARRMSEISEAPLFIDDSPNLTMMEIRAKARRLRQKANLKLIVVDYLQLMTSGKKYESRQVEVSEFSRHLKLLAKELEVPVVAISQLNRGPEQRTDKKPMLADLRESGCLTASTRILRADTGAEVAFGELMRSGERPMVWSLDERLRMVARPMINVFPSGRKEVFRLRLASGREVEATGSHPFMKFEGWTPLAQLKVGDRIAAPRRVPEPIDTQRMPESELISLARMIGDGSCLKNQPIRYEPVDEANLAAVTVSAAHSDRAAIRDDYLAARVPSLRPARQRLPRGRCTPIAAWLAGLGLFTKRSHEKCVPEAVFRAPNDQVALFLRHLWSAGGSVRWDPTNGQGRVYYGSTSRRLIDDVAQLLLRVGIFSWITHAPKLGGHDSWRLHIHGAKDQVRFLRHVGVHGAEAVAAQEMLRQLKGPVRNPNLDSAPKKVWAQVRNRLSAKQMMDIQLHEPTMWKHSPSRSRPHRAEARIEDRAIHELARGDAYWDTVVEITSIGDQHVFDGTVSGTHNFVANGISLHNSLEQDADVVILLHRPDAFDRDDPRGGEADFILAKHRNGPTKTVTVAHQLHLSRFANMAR

[9] = reduction of Shn3 3'UTR-driven luciferase in osteoblasts – cell-based, Clone20 osteoblasts, firefly luciferase, cherry-picked, dose response (AID 624132); format: functional;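 further: firefly luciferase luminescence from reporter carrying the Shn3 3'UTR in osteoblasts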
[10] = loss of viability in HepG2 cells – cell-based, CellTiter-Glo, cherry-picked, cytotoxicity control for Shn3 inhibitor project, dose response (AID 624134); format: functional
[11] = non-specific 3'UTR reporter inhibition in Clone20-Shn3RL – cell-based, Renilla luciferase, cherry-picked, counter-screen for Shn3 inhibitor project, dose response (AID 624133); format: functional
[12] = A549 cell cytotoxicity, dose response, cytotoxicity control, plate reader, cherry-pick, antagonist series (AID 743412); format: functional, cell-based
[13] = toxicity toward HepG2 liver cells – cell-based, plate reader, cherry-pick, antagonist series, cytotoxicity control, dose response (AID 743416); format: functional
cells = format: functional, cell-based
Streptococcus = assay: GAS UMAA2166 growth inhibition – luminescence, BacTiterGlo, counter-screen for streptokinase expression inhibitor project, dose response (AID 1915); format: functional, organism-based;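 further: potency for reduction of bacterial viability or growth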
[14] = Counterscreen for AddAB inhibitors: absorbance-based bacterial cell-based high throughput dose response assay for inhibitors of bacterial viability. [Related pubchem assays (depositor defined):AID435030, AID449728, AID449731, AID488942, AID488955, AID488956]; format: functional

Chain of Serine/threonine-protein phosphatase PP1-alpha catalytic subunit (P62136 whole entry): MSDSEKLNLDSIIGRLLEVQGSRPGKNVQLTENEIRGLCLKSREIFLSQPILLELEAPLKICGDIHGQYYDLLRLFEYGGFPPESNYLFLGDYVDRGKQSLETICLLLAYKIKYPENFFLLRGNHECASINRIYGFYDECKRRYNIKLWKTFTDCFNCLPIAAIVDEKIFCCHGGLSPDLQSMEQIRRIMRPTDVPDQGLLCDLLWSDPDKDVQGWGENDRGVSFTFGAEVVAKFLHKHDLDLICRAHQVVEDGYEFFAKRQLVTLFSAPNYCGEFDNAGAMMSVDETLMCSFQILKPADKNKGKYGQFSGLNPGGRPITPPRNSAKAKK

With Oc1ccc(/C=N\Nc2cc(N3CCOCC3)nc(N3CCOCC3)n2)c(O)c1 the IC50 [1] was > 67 µM (not active), the CC50 [2] was 100 µM (active) and the IC50 [3] was 57.1 µM (active). For the same molecule, the AC50 (Paired box protein Pax-8) was 20.4 µM (active).
In the case of COc1cc(NC(=O)Cn2ncc(Cl)c(Cl)c2=O)c(C)cc1[N+](=O)[O-], the EC50 [4] is reported as 4.33 µM (active), the EC50 [5] is reported as > 120 µM (not active) and the IC50 [6] is reported as 12.9 µM (active). For the same molecule, the EC50 [7] was 3.17 µM (active), the AC50 [8] was 26.6 µM (active) and the AC50 [9] was 3.44 µM (active). For the same molecule, the AC50 [10] was 40.9 µM (active), the AC50 [11] was 3.3 µM (active) and the AC50 (Paired box protein Pax-8) was 4.62 µM (active). For the same molecule, the AC50 [12] was 5.78 µM (active) and the AC50 [13] was 9.1 µM (active).
With Cc1ccc(C)c(S(=O)(=O)N2CCN(Cc3ccc(O)c4ncccc34)CC2)c1 the EC50 (cells) was > 350 µM (not active), the EC50 (Streptococcus) was 15 µM (active) and the IC50 [14] was > 119 µM (inactive). The AC50 [9] was 2.84 µM (active), the AC50 [10] was 5.3 µM (active) and the AC50 [11] was 1.23 µM (active).
